This note sets out measurements from US7527935B2, “G-protein coupled receptor having eicosanoid as ligand and gene thereof” (Mitsubishi Tanabe Pharma Corporation, priority 2002, dated 2009).

For this assay, the system named is TG1019 (5-oxo-ETE receptor). As to the kind of experiment: Intracellular calcium level in CHO cells stably expressing TG1019. Type of assay: cell-based, human. As to conditions: FuraII 340/380 nm ratio. On the procedure:
(1) Preparation of cells stably expressing TG1019 Cells stably expressing TG1019 (the receptor protein of the present invention) and cells not expressing TG1019 were prepared by introducing to CHO cells the TG1019 protein expression vector prepared in Example 5 and the control vector, as described below.
The cells stably expressing TG1019 prepared in the above section (1) was incubated in DMEM/F12 medium supplemented with 10% fetal bovine serum at 37° C. in a CO2 incubator. To the cells which were 80 to 90% confluent, was added a cell dissociation buffer (Cell Dissociation Buffer Enzyme-free PBS-based, available from Invitrogen), and cells were dissociated by incubating at 37° C. for 5 minutes. […]
The cells after loading were centrifuged once with an assay buffer, to remove supernatant, and then, they were suspended in an assay buffer to have a concentration of 3.7 to 6.3×10^6 cells/ml. This cell suspension was portioned into a 96 well plate by 80 μl/well, and the plate was set in a fluorescence measuring device (FDSS6000, [Hamamatsu Photonics]), and the reaction was started by adding a solution containing 5-oxo-ETE or 5-HETE in a 5 fold concentration dissolved in an assay buffer, by 20 μl/well. The measurement was done by measuring fluorescence intensity at 510 nm, with excitation wavelength of 340 nm and 380 nm.

As to `CCCCC/C=C\C/C=C\C/C=C\C=C\C(=O)CCCC(=O)O` [5-oxo-ETE, 5-oxo-6E,8Z,11Z,14Z-eicosatetraenoic acid], the “change in intracellular calcium level” value is “increase in intracellular calcium level”.
